Experimental data published in patent US20130064913A1, “ANTI-INFLAMMATORY BOTANICAL PRODUCTS FOR THE TREATMENT OF METABOLIC SYNDROME AND DIABETES” (Metaproteomics, LLC, priority 2001, published 2013).
Converted amounts (≈) assume the structure as drawn. Like-named read-outs stand apart in the source and are kept apart here. Marks after values point to notes of the source that are not given here.

Experiments:
[1] = test system: PGE2 synthesis in LPS-stimulated RAW 264.7 cells; experiment: PGE2 inhibition in LPS-stimulated RAW 264.7 murine macrophages (Example 1); assay type: cell-based; details: for IC50: Mus musculus, RAW264.7; for Relative Potency: category of anti-inflammatory activity based on IC50
[2] = test system: LPS-treated 3T3-L1 adipocytes; experiment: Adiponectin secretion in LPS/3T3-L1 adipocytes; assay type: cell-based, murine; details: 100 ng LPS/ml
3T3-L1 adipocytes = experiment: Lipogenesis (Oil Red O / BODIPY) in 3T3-L1 adipocytes; assay type: cell-based, murine; details: hops compounds 10, 5, 4 or 2 μg/ml, spent hops 50 μg/ml (Example 19)
[3] = test system: insulin-resistant 3T3-L1 adipocytes; experiment: Adiponectin secretion from insulin-resistant 3T3-L1 adipocytes; assay type: cell-based, murine; details: for Adiponectin/IL-6: insulin-resistant model
Excerpt: For two days, the cells were allowed grow to reach confluence. […] Twenty-four hours later, the supernatant medium was sampled for adiponectin determination. […] The adiponectin secreted into the medium was quantified using the Mouse Adiponectin Quantikine® Immunoassay kit with no modifications (R&D Systems, Minneapolis, Minn.). […] Substituting {relative adiponectin secretion/[concentration]} for the independent variable v/[S] and {relative adiponectin secretion} for the dependant variable {v}, produced a relationship of the form y=mx+b. Maximum adiponectin secretion relative to the solvent control was estimated from the y-intercept, while the concentration of test material necessary for half maximal adiponectin secretion was computed from the negative value of the slope.

NF-κB = NF-κB DNA binding of nuclear extracts (TransAM NF-κB kit) from LPS-stimulated RAW 264.7 cells; assay type: cell-based, murine; details: LPS 4 h; MgRIAA 55 and 14 μg/ml, parthenolide 80 μM, LY294002 25 μM
Method: Nuclear extracts were prepared essentially as described by Dignam, et al [Nucl Acids Res 11:1475-1489, (1983)]. […] Cells were then scraped into a clean tube and processed through three cycles of freeze/thaw. The supernatant layer following centrifugation at 10,000×g for 5 min at 4° C. was the cytoplasmic fraction. […] The nuclear extract fraction was collected as the supernatant layer following centrifugation at 10,000×g for […] at 4° C. NF-kB DNA binding of the nuclear extracts was assessed using the TransAM NF-κB kit from Active Motif (Carlsbad, Calif.) as per manufacturer's instructions. […] Protein concentration was measured (Bio-Rad assay) and 10 μg of nuclear protein extracts were assayed in duplicate.

[4] = test system: TNFα-treated 3T3-L1 adipocytes; experiment: IL-6 secretion from TNFα-treated 3T3-L1 adipocytes; assay type: cell-based, murine; details: Mus musculus, 10 ng TNFα/ml; for inhibition at 1 µg/mL: 1.0 μg/ml
COX-2 protein expression = COX-2 protein expression by Western blot in LPS-stimulated RAW 264.7 cells; assay type: cell-based, murine; details: 20 hours LPS, versus DMSO solvent control
Method: Densitometry was performed using Kodak®software.

[5] = arbitrary category of the median inhibitory concentration, read-out: Relative IC50
[6] = test material added 90 min before LPS, 18 h, read-out: IC50 (PGE2 inhibition)

Row | SMILES | IC50 [1] [µg/mL] | IC50 [1, 5] [µg/mL] | IC50 [1, 6] [µg/mL] | also measured
1 | O=c1cc(-c2ccc(O)cc2)oc2cc(O)cc(O)c12 [Apigenin, apigenin] | 2 to 7 (≈ 7.4 to 25.9 µM) | 2 to 6 (≈ 7.4 to 22.2 µM) | 2.8 (≈ 10.4 µM) | 
2 | CC(=O)Oc1ccccc1C(=O)O [Aspirin] |  |  |  | % Stimulation of adiponectin secretion (maximum) [2]: failed to induce adiponectin secretion
3 | COc1ccc2cc3[n+](cc2c1OC)CCc1cc2c(cc1-3)OCO2 [Berberine] | 2 to 7 |  |  | 
4 | Cc1ccc(-c2cc(C(F)(F)F)nn2-c2ccc(S(N)(=O)=O)cc2)cc1 [Celecoxib, celecoxib] |  |  |  | % Stimulation of adiponectin secretion (maximum) [2]: failed to induce adiponectin secretion
5 | COc1cc(/C=C/C(=O)CC(=O)/C=C/c2ccc(O)c(OC)c2)ccc1O [Curcumin, curcumin] | 2 to 7 (≈ 5.43 to 19 µM) | 2 to 6 (≈ 5.43 to 16.3 µM) |  | 
6 | O=c1c(O)c(-c2ccc(O)c(O)c2)oc2cc(O)ccc12 [Fisetin, fisetin] | > 12 | > 12 | > 12 | 
7 | O=c1c(O)c(-c2ccccc2)oc2cc(O)cc(O)c12 [Galangin, galangin] | 0.3 to 1.7 (≈ 1.11 to 6.29 µM) | 1 (≈ 3.7 µM) | 1.4 (≈ 5.18 µM) | Relative Potency [1]: high
8 | O=c1c(-c2ccc(O)cc2)coc2cc(O)cc(O)c12 [Genistein, genistein] | 0.3 to 1.7 (≈ 1.11 to 6.29 µM) | 1 (≈ 3.7 µM) | 1.7 (≈ 6.29 µM) | Relative Potency [1]: high
9 | CC(C)CCC1=C(O)C(C(=O)C(C)C)=C(O)C(CCC(C)C)(CCC(C)C)C1=O [Hexahydrocolupulone] |  |  |  | adipogenic response, in words (3T3-L1 adipocytes): failed to elicit a lipogenic response greater than the solvent controls; Adiponectin/IL-6 ([3]; 25 μg/ml): 1.36#; Adiponectin/IL-6 ([3]; 50 μg/ml): 0.60#; concentration at which maximal adiponectin secretion was observed ([3]; of the four doses tested): 12.5 µg/mL
10 | COc1ccc2c(c1)c(CC(=O)O)c(C)n2C(=O)c1ccc(Cl)cc1 [Indomethacin, indomethacin] |  |  |  | % Stimulation of adiponectin secretion (maximum) [2]: 9%
11 | CC(C)Oc1ccc2c(=O)c(-c3ccccc3)coc2c1 [Ipriflavone, ipriflavone] | 2 to 7 (≈ 7.13 to 25 µM) | 2 to 6 (≈ 7.13 to 21.4 µM) | 6.3 (≈ 22.5 µM) | 
12 | O=c1cc(N2CCOCC2)oc2c(-c3ccccc3)cccc12 [LY294002] |  |  |  | NF-κB DNA binding, in words (NF-κB): modest decrease
13 | O=c1cc(-c2ccc(O)c(O)c2)oc2cc(O)cc(O)c12 [Luteolin, luteolin] | 2 to 7 (≈ 6.99 to 24.5 µM) | 2 to 6 (≈ 6.99 to 21 µM) | 3.9 (≈ 13.6 µM) | 
14 | CN(C)C(=N)N=C(N)N [Metformin] |  |  |  | inhibition at 1 µg/mL [4]: 9%; inhibition at 5 µg/mL ([4]; 5.0 μg/ml): 4%; inhibition at 10 µg/mL ([4]; 10 μg/ml): 22%; inhibition at 50 µg/mL ([4]; 50 μg/ml): 22%
15 | O=c1c(O)c(-c2ccc(O)cc2O)oc2cc(O)cc(O)c12 [Morin, morin] | > 12 | > 12 | > 12 | 
16 | O=C1C[C@@H](c2ccc(O)cc2)Oc2cc(O)cc(O)c21 [Naringenin, naringenin] | > 12 | > 12 | > 12 | 
17 | CC1(C)CC[C@]2(C(=O)O)CC[C@]3(C)C(=CC[C@@H]4[C@@]5(C)CC[C@H](O)C(C)(C)[C@@H]5CC[C@]43C)[C@@H]2C1 [Oleanolic acid, oleanolic acid] |  | 1 (≈ 2.19 µM) |  | 
18 | C=C1C(=O)O[C@H]2[C@H]1CC/C(C)=C/CC[C@@]1(C)O[C@@H]21 [Parthenolide] |  |  |  | reduction of COX-2 protein expression (COX-2 protein expression): 22.5%; NF-κB DNA binding, in words (NF-κB): significant reduction
19 | CCc1ccc(CCOc2ccc(CC3SC(=O)NC3=O)cc2)nc1 (centres unmarked) [Pioglitazone] |  |  |  | Adiponectin Index (maximum stimulation) ([2]; relative to LPS control): 1.12*
20 | O=c1c(O)c(-c2ccc(O)c(O)c2)oc2cc(O)cc(O)c12 [Quercetin] | 0.3 to 1.7 (≈ 0.993 to 5.62 µM) | 1 (≈ 3.31 µM) | 0.82 (≈ 2.71 µM) | Relative Potency [1]: high
21 | Oc1ccc(C=Cc2cc(O)cc(O)c2)cc1 [Resveratrol, resveratrol] | 2 to 7 (≈ 8.76 to 30.7 µM) |  |  | 
22 | O=C(O)c1ccccc1O [Salicylic acid, salicylic acid] |  |  |  | % Stimulation of adiponectin secretion (maximum) [2]: failed to induce adiponectin secretion
23 | Cc1c(C)c2c(c(C)c1O)CCC(C)(COc1ccc(CC3SC(=O)NC3=O)cc1)O2 (centres unmarked) [Troglitazone] |  |  |  | Concentration at maximum stimulation of adiponectin secretion [2]: 0.625 µg/mL; inhibition at 1 µg/mL [4]: 34%
